Experimental data reported in patent US10350256B2, “Compositions for the treatment of dermatological conditions, disorders or diseases” (Veit Hoermann Gesellschaft Für Unternehmenskommunikation mbH, priority 2012, dated 2019).

Assays:
Type in all cases: in vivo, human
atopic eczema = assay: Case reports, topical treatment of atopic eczema; details: Patient B, earlier conventional therapies
From the text: (§1) Various patients have been treated topically with one of the compositions of Example 1 (Recipe N) and Example 2 (Recipe P). These patients were therapy-refractory, i.e. the patients had already been treated with standard therapies to no avail. […] Since the patients had been suffering from their respective diseases for a long time, the treatment with the compositions of the present invention seems to be effective in all stages of the diseases.
A patient suffering from atopic eczema for all their life received a continuous treatment of the affected body parts (elbows, neck, face, legs) over one month with the composition of Example 1 (Recipe N) in an amount of 1 to 10 grams in two treatments per day.
A patient suffering from atopic eczema for more than 20 years received a treatment of the affected body parts (elbows, neck, face) with the composition of Example 1 (Recipe N) for two weeks in an amount of 3 grams in two treatments per day. […] The patient stated that they had never felt so good in 20 years.
A patient suffering from atopic eczema from early childhood on, including dryness and severe itching of the affected areas of the skin, received treatment with olive oil two times a week for two months. […] Accordingly, the treatment was discontinued.
A patient suffering from atopic eczema since birth received a continuous treatment with black cumin oil for two days.

psoriasis arthritis = assay: Case report, topical treatment of psoriasis arthritis; details: Patient D
From the text: as §1
A patient suffering from psoriasis arthritis for more than 12 years received a treatment of the entire body with the composition of Example 2 (Recipe P). The composition was used regularly over two months in an amount of 150 g per day. The patient had already undergone several failed standard treatments, including cortisone treatment.

psoriasis vulgaris = assay: Case reports, treatment of psoriasis vulgaris; details: Patient H, inpatient treatment
From the text: A patient suffering from psoriasis vulgaris affecting the whole body started a continuous treatment with black cumin oil for six months after several failed therapies with e.g. Daivobet gel.
A patient suffering from suberythrodermic psoriasis vulgaris with iridocyclitis for 13 years received inpatient treatment to intensify therapy after exacerbation for two weeks and severe itching.
Hyperkeratotic plaques were found between the fingers, discreet macerations between the toes, well defined, deeply red foci at the rima ani, and discreet redness at the penis. The psoriasis area and severity index (PASI) at admission was 36.
During inpatient treatment a therapy with fumaric acid was started; the patient further received Ceterizin and Atarax. […] Local treatments included treatment with dithranol vaseline and kopflanette. Further, the whole integument received baths with soft soap and Balneum-Hermal F. The capillitium received Silix washing oil and betamethasone.
The patient further used Curatoderm emulsion for the face. Intertrigines were treated with Candiohermal and Psorcutan ointment. The PASI at discharge was 14.7.
The further medication after discharge from the hospital included fumaric acid, Loratadin, Psorcutan ointment, urea-containing ointment, and Curatoderm emulsions. […]

Compound	outcome of earlier conventional therapy (atopic eczema)	outcome of earlier standard treatments (psoriasis arthritis)	itching under treatment (psoriasis vulgaris)
C[C@]12CCC(=O)C=C1CC[C@@H]1[C@@H]2C(=O)C[C@@]2(C)[C@H]1CC[C@]2(O)C(=O)CO [cortisone]	without any success	failed	
O=C(O)COCCN1CCN(C(c2ccccc2)c2ccc(Cl)cc2)CC1 (stereo not drawn) [Ceterizin]			Itching remained
